The target of one series is MEK1 (Homo sapiens, UniProt Q02750). Particulars: cited from earlier work.
The conditions of series [1]: in vivo; cited from earlier work.
For the next series, the target named is MEK (Homo sapiens, UniProt Q02750). As to conditions: reported values; read-out: MEK inhibition; cited from earlier work.
The next series deals with ERK2 (Homo sapiens, UniProt P28482). As to conditions: Nakajima and Miyake; cited from earlier work.
Series [2] in a line: inactivation by thiols such as DTT or GST. It counts as in vitro ADME.
A further series in a line: plasma half-life. Type of series: in vitro ADME.
Series [3] addresses T1, VEGFR2 (Homo sapiens, UniProt P35968). Nature of the series: cellular inhibition of VEGFR2. Type of series: cell-based. As to conditions: triplicate. The method, then:
FIG. 21. […] Assays were performed in triplicate.
To gage the undiscriminate reactivity of these enone resorcylic acids with thiols, fluoroenone 2 and the parent analogue lacking the fluoride were treated with one equivalent of DTT (2 mM) as a prototypical thiol nucleophile in PBS (pH 7.4) containing 1% DMSO. […] With fluoroenone 1 and 2 in hand, we tested their efficacy against VEGF-R2 which was frequently found to be the most inhibited kinase in our profile of cis-enone resorcylic acid library (Dakas, P. Y., et al. (2007) Angew. Chem. Int. Ed. Engl. 46, 6899-902; Jogireddy, R., et al. (2009) Chem. Eur. J. 15, 11498-506) and KIT which represents a less inhibited kinase. […] Their cellular activity against VEGF-R2 did parallel the biochemical activity. […] During the course of our investigation, a similar modification was reported by researchers from Esai (Du, H., et al. (2009) Bioorg. Med. Chem. Lett. 19, 6196-9) however, their medicinal chemistry efforts focused the inhibition of inflammation related pathways (MEKs and their down-stream regulatory effect on cytokines) (Du, H., et al. (2009) Bioorg. Med. Chem. Lett. 19, 6196-9; Goto, M., et al. (2009) J. Pharmacol. Exp. Ther. 331, 485-95). […]

Series [4] can be described thus: reactivity with DTT as prototypical thiol nucleophile. It counts as physicochemical. Particulars: one equivalent of DTT (2 mM), PBS pH 7.4, 1% DMSO. The method, then: To gage the undiscriminate reactivity of these enone resorcylic acids with thiols, fluoroenone 2 and the parent analogue lacking the fluoride were treated with one equivalent of DTT (2 mM) as a prototypical thiol nucleophile in PBS (pH 7.4) containing 1% DMSO. […] With fluoroenone 1 and 2 in hand, we tested their efficacy against VEGF-R2 which was frequently found to be the most inhibited kinase in our profile of cis-enone resorcylic acid library (Dakas, P. Y., et al. (2007) Angew. Chem. Int. Ed. Engl. 46, 6899-902; Jogireddy, R., et al. (2009) Chem. Eur. J. 15, 11498-506) and KIT which represents a less inhibited kinase. […] Their cellular activity against VEGF-R2 did parallel the biochemical activity. […] During the course of our investigation, a similar modification was reported by researchers from Esai (Du, H., et al. (2009) Bioorg. Med. Chem. Lett. 19, 6196-9) however, their medicinal chemistry efforts focused the inhibition of inflammation related pathways (MEKs and their down-stream regulatory effect on cytokines) (Du, H., et al. (2009) Bioorg. Med. Chem. Lett. 19, 6196-9; Goto, M., et al. (2009) J. Pharmacol. Exp. Ther. 331, 485-95). […] It was further shown that the addition of a methyl substituent at the δ position to the enone enhanced the metabolic stability with a tolerable loss of activity (10 fold) (Du, H., et al. (2009) Bioorg. Med. Chem. Lett. 19, 6196-9). […]

In series [5] the target is T1, VEGFR2. Briefly: biochemical inhibition of VEGF-R2. Particulars: FIG. 20. The method, then:
It should be noted that as these compounds are expected to be irreversible inhibitors, the measured IC50 will depend on the procedure used and caution should be applied in comparing data from experiments performed under different conditions. To obtain a value which best reflects the rate of inactivation, the substrate and inhibitor were added simultaneously to the kinase solution. The data is shown in FIG. 9 (kinases have been ranked from the highest to least inhibited). As evident from FIG. 9, there is very little difference in relative selectivity of kinase inhibition throughout the library under these conditions. […] Overall, the trend of structure activity relationship which emerged from this screen is that the chiral methyl group at the ester position, while not essential, does provide higher activity (entry 6 vs. 10, 7 vs. 11 and 8 vs. 12). Substitution at the adjacent position with a hydroxyl group (entry 14 vs. 7) or at the β-position of the enone with a methyl abrogated activity (15-19). […] The trend of activity for the three natural products can be ranked as follows: alkene=epoxide>alkane. […] The two modifications of R^2 tested were beneficial in certain combinations. For example, the extra hydroxyl group present in fragment i does afford a significant (10 fold) gain of activity (8 vs. 7) in combination with fragment a. […]

T1 sequence (P35968 20-1356, species assumed): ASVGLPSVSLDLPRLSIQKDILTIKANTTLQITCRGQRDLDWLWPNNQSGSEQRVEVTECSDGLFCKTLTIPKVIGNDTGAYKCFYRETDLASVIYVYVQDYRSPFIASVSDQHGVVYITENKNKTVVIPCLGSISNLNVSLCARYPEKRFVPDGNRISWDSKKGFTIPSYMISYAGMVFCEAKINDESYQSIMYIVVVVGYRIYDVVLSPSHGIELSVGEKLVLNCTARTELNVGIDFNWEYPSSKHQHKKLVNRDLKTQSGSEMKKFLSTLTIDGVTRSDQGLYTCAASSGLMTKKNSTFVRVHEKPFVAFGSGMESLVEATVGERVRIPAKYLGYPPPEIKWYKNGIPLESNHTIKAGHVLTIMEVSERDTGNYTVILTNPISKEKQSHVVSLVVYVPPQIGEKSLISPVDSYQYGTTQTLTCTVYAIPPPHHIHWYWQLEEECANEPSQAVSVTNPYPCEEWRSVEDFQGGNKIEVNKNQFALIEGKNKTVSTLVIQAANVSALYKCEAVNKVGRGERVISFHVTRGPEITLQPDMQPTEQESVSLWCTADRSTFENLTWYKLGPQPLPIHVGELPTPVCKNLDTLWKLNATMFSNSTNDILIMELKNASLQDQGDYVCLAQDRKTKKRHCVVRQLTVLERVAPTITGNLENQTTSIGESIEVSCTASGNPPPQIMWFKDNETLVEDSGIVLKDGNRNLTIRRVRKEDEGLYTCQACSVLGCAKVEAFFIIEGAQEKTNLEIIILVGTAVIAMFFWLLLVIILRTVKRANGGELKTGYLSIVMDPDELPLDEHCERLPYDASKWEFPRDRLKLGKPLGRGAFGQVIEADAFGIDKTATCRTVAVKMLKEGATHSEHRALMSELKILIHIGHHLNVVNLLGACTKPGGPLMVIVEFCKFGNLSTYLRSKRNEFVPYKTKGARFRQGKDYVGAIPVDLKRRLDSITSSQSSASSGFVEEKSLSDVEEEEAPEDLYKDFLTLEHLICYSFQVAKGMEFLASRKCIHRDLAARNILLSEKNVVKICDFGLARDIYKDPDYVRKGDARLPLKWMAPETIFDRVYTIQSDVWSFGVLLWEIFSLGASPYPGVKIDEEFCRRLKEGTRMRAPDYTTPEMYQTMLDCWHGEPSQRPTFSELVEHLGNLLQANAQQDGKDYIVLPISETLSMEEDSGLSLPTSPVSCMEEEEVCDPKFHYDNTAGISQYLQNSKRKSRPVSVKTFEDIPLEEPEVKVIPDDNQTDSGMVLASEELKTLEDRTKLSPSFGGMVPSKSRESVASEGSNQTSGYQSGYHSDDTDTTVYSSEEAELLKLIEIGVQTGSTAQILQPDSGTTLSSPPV
Chain of MEK (Q02750 whole entry): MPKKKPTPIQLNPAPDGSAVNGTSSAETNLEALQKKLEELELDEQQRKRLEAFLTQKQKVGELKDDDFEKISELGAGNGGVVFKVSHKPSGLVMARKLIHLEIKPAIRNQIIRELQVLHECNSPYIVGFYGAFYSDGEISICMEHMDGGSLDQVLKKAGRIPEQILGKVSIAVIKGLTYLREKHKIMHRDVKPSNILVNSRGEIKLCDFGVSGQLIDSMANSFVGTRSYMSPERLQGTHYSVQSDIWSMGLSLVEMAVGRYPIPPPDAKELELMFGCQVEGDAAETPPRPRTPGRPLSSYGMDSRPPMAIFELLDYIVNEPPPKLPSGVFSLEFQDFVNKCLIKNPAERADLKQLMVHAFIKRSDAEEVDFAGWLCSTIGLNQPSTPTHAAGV
Chain of MEK1 (Q02750 whole entry): as above
Chain of ERK2 (P28482 whole entry, species assumed): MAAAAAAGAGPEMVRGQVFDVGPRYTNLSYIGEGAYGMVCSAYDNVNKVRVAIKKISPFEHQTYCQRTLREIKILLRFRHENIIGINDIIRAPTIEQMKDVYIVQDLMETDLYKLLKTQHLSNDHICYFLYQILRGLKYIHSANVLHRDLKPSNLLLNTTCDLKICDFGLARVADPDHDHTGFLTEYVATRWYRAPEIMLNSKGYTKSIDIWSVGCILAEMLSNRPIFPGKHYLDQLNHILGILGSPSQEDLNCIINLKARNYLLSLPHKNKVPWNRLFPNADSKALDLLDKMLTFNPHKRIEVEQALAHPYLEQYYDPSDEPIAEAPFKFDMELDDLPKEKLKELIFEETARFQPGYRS

As to `CCNc1cc(O)c2c(c1)/C=C/C[C@H](O)[C@H](O)C(=O)/C=C\[C@@H](C)[C@H](C)OC2=O` [E6201], the “selectivity for MEK1 relatively to PDGFRβ” value on MEK1 was more than 200 fold.

For `COc1cc(O)c2c(c1)/C=C/C[C@H](O)[C@H](O)C(=O)/C=C\C[C@H](C)OC2=O` [LL-Z1640-2], in [1], the “efficacy in animal models” value is “effective in animal models”. Moreover, the IC50 was 411 nM on MEK and 6.5 nM on VEGFR2 [3]. For the same molecule, at ERK2, the “difference in activity between LL-Z1640-2 and L-783277 in inhibition of ERK2” value is reported as 50 fold. Moreover, in [2], the inactivation by thiols entry is “inactivated by thiols such as DTT or GST”. In the series “plasma half-life”, the plasma half-life entry is “short plasma half-life”.

In the case of `C[C@H]1C/C=C(/F)C(=O)[C@@H](O)[C@@H](O)CCOc2cc(O)cc(O)c2C(=O)O1` [fluoroenone 2], in [4], the “reactivity with DTT compared with parent analogue lacking the fluoride” value is given as “reacting slower”. Further, the IC50 on VEGFR2 [5] turned out to be 60.5 nM.

The record behind these values is patent publication US20130053434A1, “IRREVERSIBLE INHIBITORS USEFUL FOR THE TREATMENT OF KINASE-RELATED PATHOLOGIES” (CENTRE NATIONAL DE LA RECHERCHE SCIENTIFIQUE, priority 2009, published 2013).
